Laboratory results from US12428406B2 (PMV Pharmaceuticals, Inc., priority 2019, dated 2025).

target: T1, p53 Y220C (Homo sapiens, UniProt P04637, Y220C); test: In vitro DNA binding activity assay (HTRF / TR-FRET): stabilization of p53 Y220C and increase of its DNA binding activity; format: biochemical; conditions: recombinant His-tagged p53 Y220C DNA binding domain (aa 94-312), biotin-labeled consensus DNA, incubated at 27° C. or 29° C. for 60 min
T1 construct: The recombinant protein was a truncation mutant containing only amino acids 94-312 of p53; made in house; host or cells: E. coli
In short: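 Stabilization of the mutant is inferred from increased binding of His-tagged p53 Y220C to a biotin-labeled consensus DNA, detected by HTRF with europium-streptavidin and APC-anti-His antibody. The concentration giving a 50% rise over compound-free binding is reported as SC150.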

T1 sequence (P04637 94-312, change not shown): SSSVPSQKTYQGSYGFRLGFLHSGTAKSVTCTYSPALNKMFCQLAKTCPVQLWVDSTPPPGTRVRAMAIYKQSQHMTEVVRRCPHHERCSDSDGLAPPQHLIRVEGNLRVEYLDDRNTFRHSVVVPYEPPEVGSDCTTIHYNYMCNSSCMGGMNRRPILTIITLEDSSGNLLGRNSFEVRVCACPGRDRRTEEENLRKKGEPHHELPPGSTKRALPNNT

SC150 (concentration of the compound required to increase the DNA binding activity by 50%), ++ (++ = 0.05 μM ≤ SC150 < 0.1 μM):
COc1cc(S(C)(=O)=O)ccc1NCC#Cc1cc2c(N[C@H]3CCN(C)C[C@H]3OC)cccc2n1CC(F)(F)F [Compound 531A, 2-{3-[(4-methanesulfonyl-2-methoxyphenyl)amino]prop-1-yn-1-yl}-N-[(3R,4S)-3-methoxy-1-methylpiperidin-4-yl]-1-(2,2,2-trifluoroethyl)-1H-indol-4-amine]
COc1cc(S(C)(=O)=O)ccc1NCC#Cc1cc2c(N[C@@H]3CCN(C)C[C@@H]3OC)cccc2n1CC(F)(F)F [Compound 532A, 2-{3-[(4-methanesulfonyl-2-methoxyphenyl)amino]prop-1-yn-1-yl}-N-[(3S,4R)-3-methoxy-1-methylpiperidin-4-yl]-1-(2,2,2-trifluoroethyl)-1H-indol-4-amine]

SC150 (concentration of the compound required to increase the DNA binding activity by 50%), + (+ = 0 μM ≤ SC150 < 0.05 μM):
CNC(=O)c1ccc(NCC#Cc2cc3c(NC4CCN(C)CC4)cccc3n2CC(F)(F)F)s1 [Compound 524A, N-methyl-5-((3-(4-((1-methylpiperidin-4-yl)amino)-1-(2,2,2-trifluoroethyl)-1H-indol-2-yl)prop-2-yn-1-yl)amino)thiophene-2-carboxamide]
CN1CCC(Nc2cccc3c2cc(C#CCNc2ccc(C(=O)N(C)C)s2)n3CC(F)(F)F)CC1 [Compound 525A, N,N-dimethyl-5-((3-(4-((1-methylpiperidin-4-yl)amino)-1-(2,2,2-trifluoroethyl)-1H-indol-2-yl)prop-2-yn-1-yl)amino)thiophene-2-carboxamide]
CCN1CCC(Nc2cccc3c2cc(C#CCNc2ccc(S(C)(=O)=O)cc2OCF)n3CC(F)(F)F)CC1 [Compound 534A, N-(1-ethylpiperidin-4-yl)-2-(3-{[2-(fluoromethoxy)-4-methanesulfonylphenyl]amino}prop-1-yn-1-yl)-1-(2,2,2-trifluoroethyl)-1H-indol-4-amine]
CCN1CCC(Nc2cccc3c2cc(C#CCNc2ccc(C(=O)NC)cc2OC)n3CC(F)(F)F)CC1 [Compound 535A, 4-[(3-{4-[(1-ethylpiperidin-4-yl)amino]-1-(2,2,2-trifluoroethyl)-1H-indol-2-yl}prop-2-yn-1-yl)amino]-3-methoxy-N-methylbenzamide]
CCN1CCC(Nc2cccc3c2cc(C#CCNc2ccc(S(C)(=O)=O)cc2OCC#N)n3CC(F)(F)F)CC1 [Compound 536A]
CCN1CCC(Nc2cccc3c2cc(C#CCNc2ccc(S(C)(=O)=O)cc2OC)n3CC(F)(F)F)CC1 [Compound 537A]
CCN1CCC(Nc2cccc3c2cc(C#CCNc2ccc(S(N)(=O)=O)cc2OC)n3CC(F)(F)F)CC1 [Compound 538A, 4-[(3-{4-[(1-ethylpiperidin-4-yl)amino]-1-(2,2,2-trifluoroethyl)-1H-indol-2-yl}prop-2-yn-1-yl)amino]-3-methoxybenzene-1-sulfonamide]
CNC(=O)c1ccc(NCC#Cc2cc3c(NC4CCN(C(C)C)CC4)cccc3n2CC(F)(F)F)c(OC)c1 [Compound 539A, 3-methoxy-N-methyl-4-{[3-(4-{[1-(propan-2-yl)piperidin-4-yl]amino}-1-(2,2,2-trifluoroethyl)-1H-indol-2-yl)prop-2-yn-1-yl]amino}benzamide]
CC(C)N1CCC(Nc2cccc3c2cc(C#CCNc2ccc(S(C)(=O)=O)cc2OCC#N)n3CC(F)(F)F)CC1 [Compound 540A]
CC(C)N1CCC(Nc2cccc3c2cc(C#CCNc2ccc(S(C)(=O)=O)cc2OCF)n3CC(F)(F)F)CC1 [Compound 541A, 2-(3-{[2-(fluoromethoxy)-4-methanesulfonylphenyl]amino}prop-1-yn-1-yl)-N-[1-(propan-2-yl)piperidin-4-yl]-1-(2,2,2-trifluoroethyl)-1H-indol-4-amine]
COc1cc(S(C)(=O)=O)ccc1NCC#Cc1cc2c(NC3CCN(C(C)C)CC3)cccc2n1CC(F)(F)F [Compound 542A, 2-{3-[(4-methanesulfonyl-2-methoxyphenyl)amino]prop-1-yn-1-yl}-N-[1-(propan-2-yl)piperidin-4-yl]-1-(2,2,2-trifluoroethyl)-1H-indol-4-amine]
COc1cc(S(N)(=O)=O)ccc1NCC#Cc1cc2c(NC3CCN(C(C)C)CC3)cccc2n1CC(F)(F)F [Compound 543A, 3-methoxy-4-{[3-(4-{[1-(propan-2-yl)piperidin-4-yl]amino}-1-(2,2,2-trifluoroethyl)-1H-indol-2-yl)prop-2-yn-1-yl]amino}benzene-1-sulfonamide]
COc1cc(S(C)(=O)=O)ccc1NCC#Cc1cc2c(NC3CCN(CCOCCOCCO)CC3)cccc2n1CC(F)(F)F [Compound 544A, 2-[2-(2-{4-[(2-{3-[(4-methanesulfonyl-2-methoxyphenyl)amino]prop-1-yn-1-yl}-1-(2,2,2-trifluoroethyl)-1H-indol-4-yl)amino]piperidin-1-yl}ethoxy)ethoxy]ethan-1-ol]
COc1cc(S(C)(=O)=O)ccc1NCC#Cc1cc2c(NC3CCN(CC4COC(=O)O4)CC3)cccc2n1CC(F)(F)F (stereo not drawn) [Compound 545A, 4-({4-[(2-{3-[(4-methanesulfonyl-2-methoxyphenyl)amino]prop-1-yn-1-yl}-1-(2,2,2-trifluoroethyl)-1H-indol-4-yl)amino]piperidin-1-yl}methyl)-1,3-dioxolan-2-one]
COc1cc(S(N)(=O)=O)ccc1NCC#Cc1cc2c(NC3CCN(CC4COC(=O)O4)CC3)cccc2n1CC(F)(F)F (stereo not drawn) [Compound 546A, 3-methoxy-4-({3-[4-({1-[(2-oxo-1,3-dioxolan-4-yl)methyl]piperidin-4-yl}amino)-1-(2,2,2-trifluoroethyl)-1H-indol-2-yl]prop-2-yn-1-yl}amino)benzene-1-sulfonamide]
COc1cc(S(=O)(=O)Nc2ccon2)ccc1NCC#Cc1cc2c(NC3CCN(CC(O)CO)CC3)cccc2n1CC(F)(F)F (stereo not drawn) [Compound 547A, 4-{[3-(4-{[1-(2,3-dihydroxypropyl)piperidin-4-yl]amino}-1-(2,2,2-trifluoroethyl)-1H-indol-2-yl)prop-2-yn-1-yl]amino}-3-methoxy-N-(1,2-oxazol-3-yl)benzene-1-sulfonamide]
COc1cc(S(N)(=O)=O)ccc1NCC#Cc1cc2c(NC3CCN(C[C@H](O)CO)CC3)cccc2n1CC(F)(F)F [Compound 549A, (rac)-4-({3-[4-({1-[2,3-dihydroxypropyl]piperidin-4-yl}amino)-1-(2,2,2-trifluoroethyl)-1H-indol-2-yl]prop-2-yn-1-yl}amino)-3-methoxybenzene-1-sulfonamide]
COc1cc(S(N)(=O)=O)ccc1NCC#Cc1cc2c(NC3CCN(C[C@@H](O)CO)CC3)cccc2n1CC(F)(F)F [Compound 550A, (rac)-4-({3-[4-({1-[2,3-dihydroxypropyl]piperidin-4-yl}amino)-1-(2,2,2-trifluoroethyl)-1H-indol-2-yl]prop-2-yn-1-yl}amino)-3-methoxybenzene-1-sulfonamide]
COc1cc(S(=O)(=O)NC2CCOCC2)ccc1NCC#Cc1cc2c(NC3CCN(CC(O)CO)CC3)cccc2n1CC(F)(F)F (stereo not drawn) [Compound 552A, 4-{[3-(4-{[1-(2,3-dihydroxypropyl)piperidin-4-yl]amino}-1-(2,2,2-trifluoroethyl)-1H-indol-2-yl)prop-2-yn-1-yl]amino}-3-methoxy-N-(oxan-4-yl) benzene-1-sulfonamide]
COc1cc(S(=O)(=O)N(C)CCO)ccc1NCC#Cc1cc2c(NC3CCN(CC(O)CO)CC3)cccc2n1CC(F)(F)F (stereo not drawn) [Compound 553A, 4-{[3-(4-{[1-(2,3-dihydroxypropyl)piperidin-4-yl]amino}-1-(2,2,2-trifluoroethyl)-1H-indol-2-yl)prop-2-yn-1-yl]amino}-N-(2-hydroxyethyl)-3-methoxy-N-methylbenzene-1-sulfonamide]
COc1cc(C(C)(C)C#N)ncc1NCC#Cc1cc2c(NC3CCN(CC(O)CO)CC3)cccc2n1CC(F)(F)F (stereo not drawn) [Compound 554A, 2-(5-{[3-(4-{[1-(2,3-dihydroxypropyl)piperidin-4-yl]amino}-1-(2,2,2-trifluoroethyl)-1H-indol-2-yl)prop-2-yn-1-yl]amino}-4-methoxypyridin-2-yl)-2-methylpropanenitrile]
COc1cc(S(=O)(=O)N(C)CCO)ccc1NCC#Cc1cc2c(NC3CCN(C4CCOCC4)CC3)cccc2n1CC(F)(F)F [Compound 555A, N-(2-hydroxyethyl)-3-methoxy-N-methyl-4-{[3-(4-{[1-(oxan-4-yl)piperidin-4-yl]amino}-1-(2,2,2-trifluoroethyl)-1H-indol-2-yl)prop-2-yn-1-yl]amino}benzene-1-sulfonamide]
